Laboratory results taken from patent publication US11459586B2, “Methods for increasing efficiency of nuclease-mediated gene editing in stem cells” (President and Fellows of Harvard College, priority 2016, dated 2022).

What was measured:
human iPSC [1] = assay: mThy1 gene targeting in hiPSC co-transfected with DNA repair or viral inhibitor genes; type: cell-based; settings: 0.5 μg plasmid overexpressing the DNA repair gene; 50 μM zVAD and 10 μM SB203580 post transfection (FIG. 9E)
Method: FIGS. 9A-G. Effects of chemical and genetic inhibitors on mThy1 gene targeting in hiPSC. FIG. 9A. Mouse Thy1 gene targeting scheme. Human iPSC were nucleofected with the mThy1 targeting vector system plasmids and analyzed by flow cytometry five days later. The percentages of mThy1^+hThy1^−, mThy1^+hThy1^+, and mThy1^−hThy1^− cells for each sample (gated on live single cells) are graphed. Lines mark the percentage values for the control sample. FIGS. 9B-9D. Human iPSC were nucleofected with: 2 μg mThy1 targeting vector; 0.5 μg Cas9 plasmid; and 1.5 μg of sgRNA plasmids. The sample was divided into multiple wells and cultured in plain media (mTeSR1+10 μM Y-27632 ROCK inhibitor) supplemented with the indicated chemical inhibitor for three days. 20 μM pifithrin α, 200 μM peptide V5 (VPMLK, SEQ ID NO:31), 200 μM peptide control (IPMIK, SEQ ID NO:32), 50 μM TEMPOL, or the indicated concentrations of SCR7 or L755507 were used. FIG. 9B, mThy1^+hThy1^− (bottom portion of each bar in each graph), mThy1^+hThy1^+ (top portion of each bar in each graph). FIG. 9C, mThy1^+hThy1^− (bottom portion of each bar in each graph), mThy1^+hThy1^+ (top portion of each bar in left and center graphs, middle portion of each bar in right graph), and mThy1^−hThy1^− (top portion of each bar in right graph). […]

hiPSC = assay: toxicity of chemical inhibitors added to hiPSC culture after nucleofection
Method: Plasmids were purified using the plasmid DNA purification kit sold under the trademark Qiagen ENDOFREE® Plasmid Maxi kit and nucleofected into iPSC cells using the Lonza 4D-Nucleofector X unit (Buffer P3, Program CB-150). For each 20 μl nucleofection reaction, 0.2-0.5×106 iPSC were transfected with up to 4 μg of plasmid DNA. Post-nucleofection, iPSC were plated onto solubilized basement membrane matrix secreted by Engelbreth-Holm-Swarm (EHS) mouse sarcoma cells sold under the trademark […]®-coated wells containing feeder-free cell culture medium sold under the trademark MTESR1™ media with 10 μM Y-27632 plus other chemical inhibitors when noted. Later experiments included 50 μM zVAD-fmk (Bachem) for 1 day and 10 μM SB203580 (Biovision) for 4-5 days post transfection (see FIGS. 5, 6, 11, and 12). For FIG. 6 (ssODN transfection), 200 ng/ml recombinant B 18R (eBioscience), was also added to the culture for 5 days post transfection.
The following inhibitors were added to the hiPSC culture at the concentrations and time periods indicated in the Examples below. • 1. p53 or Bax inhibitors: cyclic pifithrin α (StemCell Technologies); pifithrin (Tocris); peptide V5, peptide control, iMAC1 and iMAC2 (EMD Millipore); N-acetyl cysteine and 4-hydroxy TEMPO (TEMPOL) (Sigma). • 2. […]

human iPSC [2] = assay: gene targeting (mThy1, mCD147) in hiPSC transiently transfected with Cas9-IRES-anti-apoptotic gene plasmids; type: cell-based; settings: Cas9 Bcl-2 sgRNA plasmids, transient transfection
Method: FIGS. 4A-D. Bcl-2 overexpression increases HR-mediated gene targeting in human iPSC when transiently transfected with the Cas9 nuclease. FIG. 4A. Mouse Thy1 gene targeting scheme. FIG. 4B. Plasmids were constructed to constitutively express Cas9 together with an anti-apoptotic gene (separated by an IRES) under the constitutively active EF1α promoter. Plain human iPSC were nucleofected with 0.5 μg of one of these Cas9 plasmids together with 2 μg of the mThy1 targeting vector and 1.5 μg of plasmids expressing the Thy1 Left, Right, both, or no sgRNAs (pUC19). Five days later, cells were analyzed by flow cytometry. FIG. 4C. Flow cytometry staining for mThy1 and hThy1 for the Cas9 only sample gated on live single cells; the percent of cells in each quadrant is indicated. […] FIG. 4D. Compiled gene editing frequencies. The percent of mThy1^+hThy1^− (bottom portion of each bar in the left, center, and right grafts), mThy1^+hThy1^+ (top portion of bars in the left and center graphs), and mThy1^−hThy1^− (top portion of bars in the right graph) cells is graphed for each indicated sample. Lines mark the percentages for the Cas9 only sample. Results are representative of two independent experiments.
FIGS. 8A-F. Wild type Bcl-2 improves gene targeting at various genomic loci across multiple hiPSC lines. FIG. 8A. Plasmids were constructed to constitutively express the Cas9 nuclease with a form of Bcl-2 (separated by an IRES), and a sgRNA. Three human iPSC lines were nucleofected with 2 μg of mThy1 or mCD147 targeting vector and 2 μg of “Cas9 sgRNA” or “Cas9 Bcl-2 sgRNA” expression plasmid. 5-9 days later, cells were analyzed by flow cytometry. FIG. 8B. Mouse Thy1 gene targeting scheme. FIG. 8C. Single amino acid mutations were generated for the Bcl-2 BH1 (G145A) or BH4 (Y28A) domains. Compiled gene editing frequencies for cells transfected with the Left, Right, or Both Thy1 sgRNAs. The percent of mThy1^+hThy1^− (bottom portion of each set of bars in each graph), mThy1^+hThy1^+ (top portion of left and center sets of bars in each graph and center portion of right set of bars in each graph), and mThy1^−hThy1^− (top portion of right set of bars in each graph) cells among the various samples is indicated. FIG. 8D. Mouse CD147 gene targeting scheme. FIG. 8E. Flow cytometry staining for mCD147 and hCD147 for retrovirally-derived PGP1 hiPSC transfected with “Cas9 sgRNA” or “Cas9 Bcl-2 sgRNA”. Samples are gated on live single cells; the percent of cells in each quadrant is indicated. FIG. 8F. Compiled gene editing frequencies for cells transfected with the Left, Right, or both CD147 sgRNAs. The percent of mCD147^+hCD147^− (bottom portion of each set of bars in each graph), mCD147^+hCD147^+ (top portion of left and center sets of bars in each graph and center portion of right set of bars in each graph), and mCD147^−hCD147^− (top portion of right set of bars in each graph) cells among the three hiPSC lines is indicated.
PCR reactions were done using polymerase sold under the trademark KAPA HIFI™ HotStart polymerase; primers and double-stranded DNA fragments sold under the trademark GBLOCKS® are from IDT. Plasmids were constructed using isothermal assembly, transformed into Stbl3 competent E. coli (Invitrogen), grown at 30° C., and verified by Sanger sequencing (Genewiz). Anti-apoptotic genes were obtained from previously published plasmids: Bcl-2 (Addgene plasmid #8793) and Bcl-xL (#8790) (Cheng et al., 2001); Bcl2A1 (#36973) (Pratt et al., 2012); and Mcl-1 (#21605) (Maurer et al., 2006). The dominant negative p53 sequence from Addgene plasmid #9058 (Hahn et al., 2002) was synthesized as a gBlock. These genes were cloned into the EF1α promoter-Cas9 nuclease plasmid after an IRES.
The U6 promoter-sgRNA (for each sgRNA sequence) was cloned into the EF1α promoter-Cas9 nuclease or EF1α promoter-Cas9 nuclease-IRES-Bcl-2 expression plasmids to form the “Cas9 only sgRNA” or “Cas9 Bcl-2 sgRNA” plasmids used in Examples 6 and 7. […]

| Compound | mThy1 gene targeting efficiency (human iPSC [1]) | mThy1 gene targeting, wild type vs mutant Bcl-2 (human iPSC [2]) | further results |
| --- | --- | --- | --- |
| BRCA1: principal HR mediator, overexpressed from plasmid | did not improve mThy1 gene targeting efficiency | – | – |
| CC(=O)N[C@@H](CS)C(=O)O [N-acetyl cysteine] | – | – | toxicity to hiPSC (hiPSC; 1-5 mM): toxicity |
| BRCA2: principal HR mediator, overexpressed from plasmid | did not improve mThy1 gene targeting efficiency | – | – |
| Y28A: Bcl-2 with Y28A mutation in the BH4 domain | – | intermediate levels of gene targeting | – |
| G145A: Bcl-2 with G145A mutation in the BH1 domain, prevents interaction with Bax | – | intermediate levels of gene targeting | – |
| C[C@H]1CCC/C=C/[C@@H]2C[C@H](O)C[C@H]2[C@H](O)/C=C/C(=O)O1 [Brefeldin A] | – | – | toxicity to hiPSC (hiPSC; PGP1 hiPSC, 0.1 μM, data not shown): toxic |
